The target in test [1] is T1, mitoKATP (endogenous, HeLa mitochondria) (Homo sapiens, UniProt Q9NUT2).
T1 sequence (Q9NUT2 26-735): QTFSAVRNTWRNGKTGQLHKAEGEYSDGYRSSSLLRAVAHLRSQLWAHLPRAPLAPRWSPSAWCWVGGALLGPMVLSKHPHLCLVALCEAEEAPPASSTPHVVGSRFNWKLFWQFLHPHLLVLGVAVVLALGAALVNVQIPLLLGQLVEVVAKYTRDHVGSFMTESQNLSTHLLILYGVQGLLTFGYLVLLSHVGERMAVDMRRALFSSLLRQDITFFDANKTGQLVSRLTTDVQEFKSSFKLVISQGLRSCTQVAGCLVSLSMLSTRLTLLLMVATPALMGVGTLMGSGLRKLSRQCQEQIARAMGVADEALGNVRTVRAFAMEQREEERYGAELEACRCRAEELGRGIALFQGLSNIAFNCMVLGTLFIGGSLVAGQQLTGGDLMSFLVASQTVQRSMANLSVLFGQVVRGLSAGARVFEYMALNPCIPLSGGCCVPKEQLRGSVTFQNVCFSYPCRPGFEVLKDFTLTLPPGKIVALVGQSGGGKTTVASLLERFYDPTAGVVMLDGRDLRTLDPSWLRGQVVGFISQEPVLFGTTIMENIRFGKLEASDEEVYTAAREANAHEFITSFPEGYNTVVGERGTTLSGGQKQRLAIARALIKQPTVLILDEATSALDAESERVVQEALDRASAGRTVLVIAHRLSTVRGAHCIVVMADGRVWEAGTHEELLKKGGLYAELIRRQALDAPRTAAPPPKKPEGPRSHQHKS
T1 sequence (Q96ER9 36-411 partner): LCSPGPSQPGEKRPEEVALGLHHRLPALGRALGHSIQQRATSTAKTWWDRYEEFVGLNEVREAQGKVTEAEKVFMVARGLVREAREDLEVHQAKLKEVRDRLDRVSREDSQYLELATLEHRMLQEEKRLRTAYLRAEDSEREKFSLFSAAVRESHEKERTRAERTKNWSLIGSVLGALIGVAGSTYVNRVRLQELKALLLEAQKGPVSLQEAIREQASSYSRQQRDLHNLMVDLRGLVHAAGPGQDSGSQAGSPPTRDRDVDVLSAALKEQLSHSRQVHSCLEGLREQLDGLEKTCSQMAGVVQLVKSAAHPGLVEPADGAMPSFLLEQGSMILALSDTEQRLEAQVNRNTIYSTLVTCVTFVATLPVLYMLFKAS
Description: mitochondrial swelling. Type of test: biochemical. The settings on record: KCl swelling buffer, 1 mM MgCl2, 1 uM oligomycin, pH 7.2.

Test [2] deals with T2, mitoKATP (endogenous, mouse liver mitochondria) (Mus musculus, UniProt Q9CXJ4).
T2 sequence (Q9CXJ4 26-717): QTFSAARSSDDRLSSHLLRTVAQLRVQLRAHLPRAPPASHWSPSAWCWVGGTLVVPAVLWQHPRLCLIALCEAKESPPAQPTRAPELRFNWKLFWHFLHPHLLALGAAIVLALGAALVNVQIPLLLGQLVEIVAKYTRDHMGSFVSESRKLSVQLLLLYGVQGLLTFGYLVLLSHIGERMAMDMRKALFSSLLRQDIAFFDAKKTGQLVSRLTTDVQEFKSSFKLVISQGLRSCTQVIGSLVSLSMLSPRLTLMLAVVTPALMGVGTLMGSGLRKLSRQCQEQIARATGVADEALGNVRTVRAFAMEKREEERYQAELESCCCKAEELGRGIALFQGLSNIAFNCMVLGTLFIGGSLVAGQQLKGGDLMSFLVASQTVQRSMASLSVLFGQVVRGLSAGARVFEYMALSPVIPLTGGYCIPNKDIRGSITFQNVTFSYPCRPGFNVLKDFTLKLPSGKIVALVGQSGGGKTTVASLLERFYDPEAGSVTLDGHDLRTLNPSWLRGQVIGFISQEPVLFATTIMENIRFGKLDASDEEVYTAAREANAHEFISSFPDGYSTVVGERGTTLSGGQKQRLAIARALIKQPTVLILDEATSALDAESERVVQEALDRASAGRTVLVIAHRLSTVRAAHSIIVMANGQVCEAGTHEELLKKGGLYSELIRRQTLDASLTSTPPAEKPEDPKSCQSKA
T2 sequence (Q3URS9 36-406 partner): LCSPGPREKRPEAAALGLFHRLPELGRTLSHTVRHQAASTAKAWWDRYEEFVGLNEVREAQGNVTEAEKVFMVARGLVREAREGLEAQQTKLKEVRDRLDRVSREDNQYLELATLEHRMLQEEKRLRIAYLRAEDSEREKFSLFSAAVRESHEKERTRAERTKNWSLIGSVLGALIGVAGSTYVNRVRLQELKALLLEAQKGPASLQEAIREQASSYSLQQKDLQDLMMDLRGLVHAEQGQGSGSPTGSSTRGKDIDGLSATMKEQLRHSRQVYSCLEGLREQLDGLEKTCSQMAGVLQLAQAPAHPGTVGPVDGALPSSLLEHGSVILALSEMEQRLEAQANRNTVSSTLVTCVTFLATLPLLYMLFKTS
Kind of test: […]+ uptake, isolated liver mitochondria. Type of test: biochemical. Conditions: 1 mM MgCl2, 1 uM oligomycin, pH 7.2.

Results on 2 molecules are retold here after PMC6726485 (Nature, 2019).

SMILES strings stand for the structures.

As for `Nc1ncnc2c1ncn2[C@@H]1O[C@H](COP(=O)(O)OP(=O)(O)OP(=O)(O)O)[C@@H](O)[C@H]1O` [ATP], the “mitochondrial swelling (A520), isolated HeLa mitochondria” value in test [1] (inhibitor) is “ATP decreases and diazoxide increases the swelling rates”. In addition, the “86Rb+ uptake, isolated liver mitochondria” value in test [2] (inhibitor, 2 mM ATP) was “neither ATP nor diazoxide were able to alter K^+ fluxes when Mitok was absent”.

`CC1=NS(=O)(=O)c2cc(Cl)ccc2N1` [diazoxide]: the “mitochondrial swelling (A520), isolated HeLa mitochondria” value in test [1] (activator) is “ATP decreases and diazoxide increases the swelling rates”. The “86Rb+ uptake, isolated liver mitochondria” value in test [2] (activator, 50 uM diazoxide) is listed as “neither ATP nor diazoxide were able to alter K^+ fluxes when Mitok was absent”.
